Reference: paper PMC12040169 (PLOS Biology, 2025)

Assay: in vitro
Conditions: human, hela cells, % viability

Compared with `O=C(O)c1cccc(NCC(=O)c2ccccc2)c1` [CBK287163], `O=C(CCCc1c[nH]c2ccccc12)Nc1cccc(C(=O)O)c1` [CBK287175] is higher in viability at 28.5 h, 10 µM: 88.8% for the first, 104% for the second.

Compared with `O=C1c2ccccc2NC(C(=O)O)(c2ccccc2)N1c1ccccc1Cl` (centres unmarked) [CBK287169], `O=C(O)CC(CN1C(=O)c2ccccc2C1=O)C(=O)c1ccccc1` (centres unmarked) [CBK287221] is higher in viability at 28.5 h, 10 µM: 81% for the first, 92.4% for the second.

Going from `O=C(O)CCCNS(=O)(=O)/C=C/c1ccccc1` [CBK287170] to `O=C(O)CCC1C(=O)CCC1(C(=O)O)c1ccccc1` (centres unmarked) [CBK287208], the viability at 28.5 h, 10 µM rises from 85.1% to 108%.

Going from `CCOc1ccc(S(=O)(=O)Nc2ccc(C(=O)O)cc2)cc1` [CBK287171] to `Cc1ccc(CN(c2ccc(C(=O)O)cc2)S(C)(=O)=O)cc1` [CBK287203], the viability at 28.5 h, 10 µM falls from 89.9% to 85%.

Compared with `O=C(O)c1ccc2c(c1)C(=O)N(c1cccnc1)C2=O` [CBK287173], `O=C(O)c1ccc(N2C(=O)CC(N3CCN(c4cccc(C(F)(F)F)c4)CC3)C2=O)cc1` (centres unmarked) [CBK287228] is higher in viability at 28.5 h, 10 µM: 84.3% for the first, 93.3% for the second.

Going from `O=C(O)c1cccnc1SCc1cc2c(cc1Cl)OCO2` [CBK287178] to `CCCNC(=O)CSc1ncccc1C(=O)O` [CBK287202], the viability at 28.5 h, 10 µM falls from 93.9% to 78.6%.

Compared with `CCc1ccccc1NC(=O)CN1CCCCC1C(=O)O` (centres unmarked) [CBK287179], `O=C(O)c1ccccc1S(=O)(=O)CC(=O)N1CCCCC1` [CBK287180] is lower in viability at 28.5 h, 10 µM: 92.4% for the first, 89.1% for the second.

Compared with `Cc1ccc(C2CCC(C(=O)O)C(C(=O)O)C2)cc1C` (centres unmarked) [CBK287184], `O=C(O)C1CCN(C2C(=O)Nc3ccc(Cl)cc3C2c2ccccc2)CC1` (centres unmarked) [CBK287210] is lower in viability at 28.5 h, 10 µM: 98.2% for the first, 94.4% for the second.

First: Nc1nc(-c2ccc(Cl)cc2)c(CC(=O)O)s1 [CBK287188]
Second: COc1ccc(-c2nnc(SCC(=O)O)n2C)cc1 [CBK287232]
The viability at 28.5 h, 10 µM of the first is lower: 80% for the first, 93% for the second.

First: COc1ccccc1NC(CC(=O)c1ccccc1)C(=O)O (centres unmarked) [CBK287190]
Second: Cc1ccc(C(=O)CC(C(=O)O)c2cn(CCC#N)c3ccccc23)cc1 (centres unmarked) [CBK287194]
The viability at 28.5 h, 10 µM of the first is lower: 83.8% for the first, 85.8% for the second.

Compared with `O=C(O)CCC(=O)CCC(=O)c1ccc(F)cc1` [CBK287191], `CN(C)S(=O)(=O)c1ccc(CCC(=O)O)cc1` [CBK287216] is higher in viability at 28.5 h, 10 µM: 87.3% for the first, 92% for the second.

Going from `O=C(O)CCN1C(=O)COc2ccc(Cl)cc21` [CBK287192] to `O=C(O)C1CC(=O)N(CCc2c[nH]c3ccc(Cl)cc23)C1` (centres unmarked) [CBK287211], the viability at 28.5 h, 10 µM falls from 107% to 91%.

Compared with `O=C(O)C1CCN(c2c(-c3ccccc3)c3cc(Cl)ccc3[nH]c2=O)CC1` [CBK287198], `O=C(O)Cn1c(=O)[nH]c2c(-c3ccccc3)c[nH]c2c1=O` [CBK287218] is lower in viability at 28.5 h, 10 µM: 87.3% for the first, 87.2% for the second.

Going from `CCCn1cnc2sc(C(=O)O)c(C)c2c1=O` [CBK287199] to `CCCCNCC(=O)Nc1sc2c(c1C(=O)O)CCCC2` [CBK287207], the viability at 28.5 h, 10 µM falls from 96% to 83.7%.

Compared with `CC(C)(C)NC(=O)COc1ccc(CNCc2ccc(C(=O)O)cc2)cc1` [CBK287204], `CC(C)(C)NC(=O)COc1ccc(CNc2ccc(C(=O)O)c(Cl)c2)cc1` [CBK287230] is higher in viability at 28.5 h, 10 µM: 78.1% for the first, 111% for the second.

`CC(C)CC(NC(=O)C1CCC(C)CC1)C(=O)O` (centres unmarked) [CBK287212] and `NC(CSC12CC3CC(CC(C3)C1)C2)C(=O)O` (centres unmarked) [CBK287219] are the same in viability at 28.5 h, 10 µM: 88.2% for the first, 88.2% for the second.

Compared with `O=C(O)[C@@H]1CSC(c2ccc3c(c2)OCO3)N1` (some centres unmarked) [CBK287214], `CC12CC(NC(=O)N1c1ccc(C(=O)O)cc1)c1ccccc1O2` (centres unmarked) [CBK287226] is lower in viability at 28.5 h, 10 µM: 89.8% for the first, 82.2% for the second.

Compared with `O=C(O)CCSc1nnnn1-c1ccccc1` [CBK287217], `O=C(O)/C=C/C(=O)NCCc1c[nH]c2ccccc12` [CBK287222] is higher in viability at 28.5 h, 10 µM: 88.4% for the first, 93% for the second.

First: O=C(O)CCc1ccc(S(=O)(=O)N2CCOCC2)cc1 [CBK287224]
Second: CCC(CC)NS(=O)(=O)c1cccc(C(=O)O)c1 [CBK287225]
The viability at 28.5 h, 10 µM of the first is higher: 90.1% for the first, 88.3% for the second.
